The text below walks through data of article PMC3020970, “K70Q Adds High-Level Tenofovir Resistance to “Q151M Complex” HIV Reverse Transcriptase through the Enhanced Discrimination Mechanism” (PLoS ONE, 2011).

Common to all, as to assay type: cell-based
Experiment [1] deals with HIV-1 NL4-3 strain (WT). Put plainly: microbe, parasite or virus in culture. As for the experimental part: (§1) Susceptibilities to various RT inhibitors were determined using the MAGIC-5 cells which are HeLa cells stably transfected with a β-galactosidase gene under the control of an HIV long terminal repeat promoter, and with vectors that express the CD4 receptor and the CCR5 co-receptor under the control of the CMV promoter as described previously. Briefly, MAGIC-5 cells were infected with diluted virus stock (100 blue forming units) in the presence of increasing concentrations of RT inhibitors, cultured for 48 h, fixed, and stained with X-Gal (5-bromo-4-chloro-3-indolyl-β-D-galacto-pyranoside). The stained cells were counted under a light microscope.

The test system of experiment [2] is HIV-1 Q151Mc/K70N. Briefly: Single-cycle drug susceptibility assay (MAGIC-5 cells). The protocol: (§2) The NL4-3-based molecular clone was constructed by replacing the pol-coding region with the HIV-1 BH10 strain. […] Each molecular clone was transfected into COS-7 cells. Cells were grown for 48 h, and culture supernatants were harvested and stored at −80°C until use.
as §1

The test system of experiment [3] is HIV-1 Q151Mc/K70R. The description is as above. The protocol:
as §2, §1

Experiment [4] has as its system HIV-1 K70E. Described as above. The protocol:
as §2, §1

The test system of experiment [5] is HIV-1 K70Q. The experiment is described as above. To be noted: Human immunodeficiency virus 1, MAGIC-5; K70Q. As for the experimental part: as §2, §1
Experiment [6] relates to HIV-1 K70T. Described as above. The protocol: as §2, §1
The test system of experiment [7] is HIV-1 K70N. The experiment is described as above. The protocol: as §2, §1
The subject of experiment [8] is HIV-1 K70G. The experiment is described as above. The protocol:
as §2, §1

Experiment [9] relates to HIV-1 Q151Mc/K70E. The experiment is described as above. The protocol: as §2, §1
For experiment [10], the system named is HIV-1 Q151Mc/K70G. The description is as above. As for the experimental part:
as §2, §1

Experiment [11] deals with HIV-1 Q151Mc/K70T. The description is as above. As for the experimental part:
as §2, §1

The test system of experiment [12] is HIV-1 Q151Mc/K70Q. Described as above. The protocol:
as §2, §1

For experiment [13], the system named is HIV-1 K70R. Described as above. As for the experimental part:
as §2, §1

Experiment [14] relates to HIV-1 Q151Mc. The description is as above. To be noted: Human immunodeficiency virus 1, MAGIC-5. The protocol: as §2, §1
Experiment [15] relates to HIV-1 WT. Briefly: Single-cycle drug susceptibility assay (MAGIC-5 cells), recombinant WT clone. To be noted: Human immunodeficiency virus 1, Table S2. The protocol:
as §2, §1

Experiment [16] has as its system HIV-1 clinical isolate 1 (Q151Mc-containing). Put plainly: Single-cycle drug susceptibility assay (MAGIC-5 cells), clinical isolate 1. To be noted: Human immunodeficiency virus 1; clinical isolate 1, MAGIC-5 cells. As for the experimental part: (§3) HIV was isolated from fresh plasma immediately after collection of clinical samples from study participants at the outpatient clinic of the AIDS Clinical Center (ACC), International Medical Center of Japan. The Institutional Review Board approved this study (IMCJ-H13-80) and a written consent was obtained from all participants.
as §1

Experiment [17] has as its system HIV-1 clinical isolate 2 (Q151Mc + K70Q). Put plainly: Single-cycle drug susceptibility assay (MAGIC-5 cells), clinical isolate 2. Particulars: Human immunodeficiency virus 1; clinical isolate 2, MAGIC-5 cells. As for the experimental part:
as §3, §1

The mark [18] stands for this setting: Human immunodeficiency virus 1, NL43, WT, MAGIC-5 cells, Table S1, read-out: EC50.

Where two headings read alike, the source gives them in different places.

Consider `Nc1ccn([C@@H]2CS[C@H](CO)O2)c(=O)n1` [3TC, lamivudine], for which the EC50 in [1] (setting [18]) amounted to 1.4 ± 0.15 µM; in experiment [2] (Human immunodeficiency virus 1, MAGIC-5, Q151Mc/K70N), 15 ± 1.7 µM; in experiment [3] (Human immunodeficiency virus 1, MAGIC-5, Q151Mc/K70R) it was 16 ± 1.5 µM; in experiment [4] (Human immunodeficiency virus 1, MAGIC-5, K70E) it was 16 ± 2.1 µM; in [5], 4.6 ± 0.53 µM; in [6] (Human immunodeficiency virus 1, MAGIC-5, K70T) it was 4.3 ± 0.29 µM. Also, the 50% effective concentration (EC50) worked out at 2.2 ± 0.25 µM in [7] (Human immunodeficiency virus 1, MAGIC-5, K70N); 26 ± 0.58 µM in experiment [8] (Human immunodeficiency virus 1, MAGIC-5, K70G); 11 ± 1.4 µM in experiment [9] (Human immunodeficiency virus 1, MAGIC-5, Q151Mc/K70E); 46 ± 2.5 µM in [10] (Human immunodeficiency virus 1, MAGIC-5, Q151Mc/K70G); 12 ± 2.5 µM in experiment [11] (Human immunodeficiency virus 1, MAGIC-5, Q151Mc/K70T); 81 ± 0.08 µM in experiment [12] (Human immunodeficiency virus 1, MAGIC-5, Q151Mc/K70Q). Besides, the EC50 in [13] (Human immunodeficiency virus 1, MAGIC-5, K70R) came out at 2.5 ± 0.46 µM; in experiment [14], 29 ± 3.2 µM; in [15] it was 1.4 ± 0.16 µM. Moreover, the “Fold increase in EC50 compared to HIV-1 Q151Mc” value was “(0.5) fold” in experiment [2] (Q151Mc/K70N vs Q151Mc); “(0.6) fold” in experiment [3] (Q151Mc/K70R vs Q151Mc); “(0.4) fold” in experiment [9] (Q151Mc/K70E vs Q151Mc); “(1.6) fold” in experiment [10] (Q151Mc/K70G vs Q151Mc); “(0.4) fold” in experiment [11] (Q151Mc/K70T vs Q151Mc); “(2.8) fold” in experiment [12] (Q151Mc/K70Q vs Q151Mc). The “Fold increase in EC50 compared to HIV-1 WT” value is reported as “(11) fold” in [4] (K70E vs WT); “(3.1) fold” in experiment [6] (K70T vs WT); “(1.6) fold” in [7] (K70N vs WT); “(19) fold” in [8] (K70G vs WT); “(1.8) fold” in experiment [13] (K70R vs WT).
As to `Cc1cn([C@H]2C[C@H](N=[N+]=[N-])[C@@H](CO)O2)c(=O)[nH]c1=O` [AZT, zidovudine], in experiment [1] (Human immunodeficiency virus 1, NL43, MAGIC-5), the EC50 turned out to be 0.023 ± 0.002 µM.
Take `O=C1Nc2ccc(Cl)cc2[C@@](C#CC2CC2)(C(F)(F)F)O1` [EFV, efavirenz]: the EC50 in experiment [1] (setting [18]) was 0.002 ± 0.0001 µM; in experiment [16], > 1 µM; in experiment [17], > 1 µM.

By EC50 is commonly meant the concentration needed to bring the measured effect to its halfway point.
